Where “and” joins values, the source holds several entries; their conditions need not be identical. Equal entries are not always repeated. Ends that are not written are not given here.

From patent US12371459B2, “Antimicrobial peptide derived from Pseudin-2 peptide and uses thereof” (INDUSTRY-ACADEMIC COOPERATION FOUNDATION, CHOSUN UNIVERSITY, priority 2019, dated 2025) come the findings set out here.

Series [1] has as its system Pseudomonas aeruginosa ATCC 27853. The note with it: ATCC 27853, 18 h. From the text: (§1) To compare the antimicrobial activity among the peptides produced by the method of Example 1, the inventors of the present invention measured the minimal growth inhibitory concentration (MIC), which is minimum concentration of the peptide not allowing any […] of bacterial cells.
(§2) Specifically, the bacterial strains described in the following Table 2 were purchased and cultured to a mid-log phase in a medium that is appropriate for each strain. […] After the addition to a plate, the cells were cultured for 18 hours at 37° C. […] As a control, Pseudin-2 as a mother peptide was used.

For series [2], the system named is Escherichia coli CCARM 1229 (tolerance to antibiotics).
Description: as §1, §2

The test system of series [3] is Staphylococcus aureus CCARM 3518 (tolerance to antibiotics).
Description: as §1, §2

For series [4], the system named is Pseudomonas aeruginosa isolated strain 4007 (tolerance to antibiotics).
Description: as §1, §2

The test system of series [5] is Trichosporon beigelii KCTC 7707. Particulars: KCTC 7707, 18 h.
Description: as §1, §2

The subject of series [6] is Pseudomonas aeruginosa isolated strain 4891 (tolerance to antibiotics).
Description: as §1, §2

Series [7] relates to Listeria monocytogenes KCTC 3710. Particulars: KCTC 3710, 18 h.
Description: as §1, §2

The subject of series [8] is Salmonella typhimurium KCTC 1926. The note with it: KCTC 1926, 18 h.
Description: as §1, §2

The subject of series [9] is Staphylococcus aureus ATCC 25923. Particulars: ATCC 25923, 18 h.
Description: as §1, §2

In series [10] the test system is Staphylococcus aureus CCARM 3090 (tolerance to antibiotics).
Description: as §1, §2

In series [11] the test system is Escherichia coli ATCC 25922. Particulars: ATCC 25922, 18 h.
Description: as §1, §2

The test system of series [12] is Bacillus subtilis KCTC 1998. The note with it: KCTC 1998, 18 h.
Description: as §1, §2

The subject of series [13] is Candida albicans KCTC 7270. Particulars: KCTC 7270, 18 h.
Description: as §1, §2

In series [14] the test system is Escherichia coli CCARM 1238 (tolerance to antibiotics).
Description: as §1, §2

The next series in a line: in vitro. Particulars: human, HaCaT keratinocyte cells. As to the method:
To determine the cytotoxicity of the peptides produced by the method of Example 1 in normal cell line, cytotoxicity was measured by using human keratinocyte cell line (HaCaT cell line, Dr. N E. Fusenig, Heidelberg, Germany).
Specifically, HaCaT cells, which have been cultured in DMEM medium containing 10% FBS (fetal bovine serum), were aliquoted in a microtiter plate to have 2×10^5 cells per well. […] Twenty-four hours later, a reaction solution containing 0.5 mg/ml MTT (thiazolyl blue tetrazolium bromide) dissolved in phosphate buffered saline (PBS) was added in an amount of 100 μl to each well and the reaction was allowed to occur for 4 hours. After that, the supernatant was discarded, and, by dissolving MTT crystals that are formed by adding 200 μl DMSO (dimethyl sulfoxide), the absorbance at 560 nm was measured to determine the cell survival ability.

The next series concerns plasmid DNA (pRSETB). Put plainly: Binding between antimicrobial peptide and DNA (agarose gel electrophoresis). The note with it: plasmid DNA 300 ng, peptide/DNA ratio 0.25:1 to 4:1, 10 minutes at 37° C. As to the method:
Specifically, plasmid DNA (pRSETB, 300 ng) and the peptide were reacted for at different ratio (i.e., peptide/DNA ratio was 0 (DNA only), 0.25:1, 0.5:1, 1:1, 1.5:1, 2:1, 3:1, or 4:1) for 10 minutes at 37° C. After that, electrophoresis was carried out using 1% agarose gel followed by staining with ethidium bromide (EtBr) and UV determination.

The test system of series [15] is erythrocytes of a mouse (Balb/c). Put plainly: Erythrocyte hemolytic activity. The note with it: 1 hour at 37° C. As to the method:
To compare the cytotoxicity among the peptides that are produced by the method of Example 1, erythrocyte hemolytic activity of the synthesized peptide was measured.
After that, the amount of hemoglobin contained in a supernatant collected by centrifuge at 1,000×g was determined by measuring the absorbance at a wavelength of 414 nm. As a control to be used as a reference for cell disruption level, the supernatant collected by a treatment with 1% Triton X-100 (Sigma, USA) and a reaction for 1 hour at 37° C. was used to measure the absorbance. By setting the resulting absorbance value at 100% of the erythrocyte hemolytic activity, hemolysis of each peptide was calculated using the following equation 1. Erythrocyte disrupting ability (%)=(Absorbance A−Absorbance B)/(Absorbance C−Absorbance B)×100 Equation 1 (in the above equation, Absorbance A indicates the absorbance of a reaction solution treated with each peptide, in which the absorbance is measured at a wavelength of 414 nm; Absorbance B indicates the absorbance of a reaction solution treated with PBS, in which the absorbance is measured at a wavelength of 414 nm; and Absorbance C indicates the absorbance of a reaction solution treated with 1% Triton X-100, in which the absorbance is measured at a wavelength of 414 nm).

Another series relates to Staphylococcus aureus. Put plainly: Flow cytometry, propidium iodide, effect on bacteria membrane. The format is cell-based. The note with it: peptide at MIC. As to the method:
(§3) After that, the supernatant was removed by centrifuge (10,000 rpm) and stained with propidium iodide (PI, concentration of 10 μg/ml) for 30 minutes at 4° C. Thereafter, unbound propidium iodide was removed by centrifuge, and the problem of cell aggregation phenomenon was solved by adding physiological saline (PBS) in an amount of 1 ml.
In general terms: Flow cytometry measures light scatter and fluorescence of single cells or particles in a stream.

A further series relates to Escherichia coli. The description is as above. The format is cell-based. The note with it: peptide at MIC. As to the method: as §3

The viability is the share of living cells, or the viability signal relative to a control. A lower viability goes with more harm to the cells. Regarding “GLNALKKVSQGIHESIKLINNHVQ-NH2 [Pse-Anal6]”, the Minimal inhibitory concentration in series [1] was determined as 16 µM; in [2], 64 µM; in series [3], 64 µM; in [4], 64 µM; in series [5] it was 64 µM; in [6], 64 µM. Moreover, the Minimal inhibitory concentration amounted to 32 µM in series [7]; 16 µM in [8]; 32 µM in series [9]; 64 µM in [10]; 16 µM in [11]; 32 µM in [12]. The Minimal inhibitory concentration in series [13] and in [14] was 64 µM throughout. Also, in “in vitro” (Cell survival ability), the viability at 24 h, 3.13 µM came out at 100%. This substance came in with a viability at 24 h, 6.25 µM in the series “in vitro” (Cell survival ability) of 100%. For the same substance, the viability at 24 h, 12.5 µM in the series “in vitro” (Cell survival ability) was 100%. For the same substance, the viability at 24 h, 25 µM in “in vitro” (Cell survival ability) turned out to be 100%. Moreover, in the series “in vitro” (Cell survival ability), the viability at 24 h, 50 µM amounted to 100%. In addition, in “in vitro” (Cell survival ability), the viability at 24 h, 100 µM turned out to be 92.1%.
As to “ALNALKKVSQGIHEAIKLIANHVQ-NH2 [Pse-Anal7]”, the Minimal inhibitory concentration in [1] came to 8 µM; in series [2] it was 16 µM; in series [3], 32 µM; in [4], 32 µM; in series [5] it was 32 µM; in series [6] it was 32 µM. Besides, the Minimal inhibitory concentration in series [7] is 16 µM; in series [8] it was 8 µM; in series [9], 16 µM; in [10], 32 µM; in [11] it was 8 µM; in series [12], 16 µM. For the same substance, the Minimal inhibitory concentration in [13] came to 32 µM; in [14], 16 µM. In “in vitro” (Cell survival ability), the viability at 24 h, 3.13 µM was 100%. The same substance yielded a viability at 24 h, 6.25 µM in the series “in vitro” (Cell survival ability) of 100%. The viability at 24 h, 12.5 µM in the series “in vitro” (Cell survival ability) is 100%. The substance further came in with a viability at 24 h, 25 µM in “in vitro” (Cell survival ability) of 100%. Also, the viability at 24 h, 50 µM in the series “in vitro” (Cell survival ability) amounted to 100%. Moreover, the viability at 24 h, 100 µM in “in vitro” (Cell survival ability) was 100%.
Regarding “WLNALKKVFQGIHEAIKLIWNWVQ-NH2 [Pse-Anal3]”, the Minimal inhibitory concentration in [1] was 16 µM; in series [2] it was 32 µM; in series [3] it was 32 µM; in series [4], 64 µM; in series [5], 32 µM; in series [6], 64 µM. Moreover, the Minimal inhibitory concentration in series [7] was determined as 32 µM; in series [8], 16 µM; in series [9], 32 µM; in series [10] it was 32 µM; in [11], 16 µM; in series [12], 32 µM. Further, the Minimal inhibitory concentration in series [13] and in [14] was 32 µM throughout. The same substance yielded a viability at 24 h, 3.13 µM in “in vitro” (Cell survival ability) of 55.4%. In “in vitro” (Cell survival ability), this substance had a viability at 24 h, 6.25 µM of 45.8%. In addition, in the series “in vitro” (Cell survival ability), the viability at 24 h, 12.5 µM was found to be 25.6%. Besides, the viability at 24 h, 25 µM in the series “in vitro” (Cell survival ability) was found to be 24.1%. Besides, in “in vitro” (Cell survival ability), the viability at 24 h, 50 µM came out at 13.6%. Also, the viability at 24 h, 100 µM in “in vitro” (Cell survival ability) amounted to 10.8%.
For the substance “WLNALKKVFQGIHEAIKLIWNHVQ-NH2 [Pse-Anal2]”, the Minimal inhibitory concentration is 2 µM in series [1]; 2 µM in [2]; 4 µM in series [3]; 2 µM in series [4]; 32 µM in [5]; 4 µM in [6]. Also, the Minimal inhibitory concentration in series [7] was determined as 8 µM; in series [8], 2 µM; in series [9] it was 4 µM; in series [10] it was 4 µM; in [11], 2 µM; in [12], 4 µM. Besides, the Minimal inhibitory concentration in series [13] came to 32 µM; in [14] it was 2 µM. Further, the viability at 24 h, 3.13 µM in the series “in vitro” (Cell survival ability) came to 81.3%. For the same substance, the viability at 24 h, 6.25 µM in the series “in vitro” (Cell survival ability) amounted to 48.1%. The substance further showed a viability at 24 h, 12.5 µM in the series “in vitro” (Cell survival ability) of 32.2%. Also, the viability at 24 h, 25 µM in “in vitro” (Cell survival ability) stood at 18.8%. For the same substance, in “in vitro” (Cell survival ability), the viability at 24 h, 50 µM is 15.7%. The substance also displayed a viability at 24 h, 100 µM in the series “in vitro” (Cell survival ability) of 5.1%.
Turning to “GLNALKKVFQGIHEAIKLINNHVQ-NH2 [Pseudin-2]”, in the series on plasmid DNA (pRSETB), the “Binding to DNA” value is “did not show any binding to DNA”. Further, in “in vitro”, the viability at 24 h, 3.13 µM came to 100%; the viability at 24 h, 6.25 µM was 100%; the viability at 24 h, 12.5 µM turned out to be 100%; the viability at 24 h, 25 µM amounted to 100%. In “in vitro”, this substance showed a viability at 24 h, 50 µM of 100% and a viability at 24 h, 100 µM of 82.1%. In addition, in series [15] (peptide concentration 3.13 μM), the Erythrocyte disrupting ability is reported as 0%. The same substance gave an Erythrocyte disrupting ability in series [15] (peptide concentration 6.25 μM) of 0%. The same substance came in with an Erythrocyte disrupting ability in [15] (peptide concentration 12.5 μM) of 0%. The substance further came in with an Erythrocyte disrupting ability in series [15] (peptide concentration 25 μM) of 0%. The Erythrocyte disrupting ability in series [15] (peptide concentration 50 μM) turned out to be 3.2%. Also, the Erythrocyte disrupting ability in series [15] (peptide concentration 100 μM) was 10% and 10.1%.
For the substance LNALKKVFQGIHEAIKLI-NH2 [Pse-T1], the “Binding to DNA” value in the series on plasmid DNA (pRSETB) is recorded as “showed binding to DNA”. Also, the viability at 24 h, 3.13 µM in the series “in vitro” turned out to be 100%. The viability at 24 h, 6.25 µM in “in vitro” is 100%. In addition, the viability at 24 h, 12.5 µM in the series “in vitro” stood at 100%. In the series “in vitro”, the viability at 24 h, 25 µM came to 100%. The same substance had a viability at 24 h, 50 µM in the series “in vitro” of 98.8%. The viability at 24 h, 100 µM in “in vitro” is 86.2%. Further, the “Membrane disrupting ability compared with Pseudin-2” value with Staphylococcus aureus and in the series with Escherichia coli was “higher membrane disrupting ability than Pseudin-2” each time. Besides, the Erythrocyte disrupting ability turned out to be 0% in series [15] (peptide concentration 3.13 μM); 0% in [15] (peptide concentration 6.25 μM); 0% in series [15] (peptide concentration 12.5 μM); 0% in series [15] (peptide concentration 25 μM); 3.9% in series [15] (peptide concentration 50 μM); 12.3% in [15] (peptide concentration 100 μM).
